Experiment in all cases: DTP human tumour cell line panel, 48 h
Test [1] has as its system PC-3 prostate.
Test [2] has as its system SK-OV-3 ovarian.
In test [3] the test system is SNB-75 CNS.
Test [4] has as its system DU-145 prostate.
The subject of test [5] is SK-MEL-28 melanoma.
In test [6] the test system is SK-MEL-2 melanoma.
The test system of test [7] is NCI-H23 lung.

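Interpolation was linear, between the two tested concentrations surrounding the appropriate level; five concentrations were tested over 48 hours in 96-well plates. The concentration for 50% growth inhibition is given as GI50. At the TGI there is no net growth.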

On to `C=CC(=O)Nc1cccc(C)c1Nc1cc(-c2cccnc2Cc2c(C)c(OC)cc(OC)c2C)ncn1`, for which the GI50 (commonly the concentration that inhibits growth by half) is 5.65 µM in test [1]; 34.5 µM in test [2]; 13.2 µM in test [3]; 16.7 µM in test [4]; 16.9 µM in test [5]; 12.6 µM in test [6]. The GI50 in test [7] was 12.7 µM. Moreover, the TGI – broadly, the concentration at which net growth stops – in test [1] is over 100 µM; in test [2] it was over 100 µM; in test [3], 91.2 µM; in test [4] it was over 100 µM; in test [5], 69.2 µM; in test [6], 32.4 µM. In test [7], the TGI amounted to 47.3 µM.
Consider `O=c1[nH]c2ccccc2nc1-c1c[nH]c2ccccc12`, for which the GI50 was over 100 µM in test [1]; over 100 µM in test [2]; 2.93 µM in test [3]; over 100 µM in test [4]; over 100 µM in test [5]; over 100 µM in test [6]. Also, the GI50 in test [7] is over 100 µM. Also, the TGI in test [1], in test [2], in test [3], in test [4], in test [5] and in test [6] was over 100 µM in each case. Also, in test [7], the TGI is over 100 µM.
Regarding `COC(=O)Cn1c2c(c3c(O)cccc31)C(=O)c1ccccc1-2`, the GI50 in test [1], in test [2], in test [3], in test [4], in test [5] and in test [6] was over 100 µM each time. Further, the GI50 in test [7] is over 100 µM. Also, the TGI in test [1], in test [2], in test [3], in test [4], in test [5] and in test [6] was over 100 µM throughout. The concentration for total growth inhibition (TGI) in test [7] is over 100 µM.
With `Cc1cc2c3ccc(C)[n+](C)c3ccc2n1C`, the GI50 was 1.26 µM in test [1]; 2.88 µM in test [2]; 3.15 µM in test [3]; 5.09 µM in test [4]; 6.05 µM in test [5]; 7.56 µM in test [6]. Besides, the GI50 in test [7] is 2.04 µM. The TGI came to 9.11 µM in test [1]; 9.41 µM in test [2]; 14.7 µM in test [3]; 51.5 µM in test [4]; 19.5 µM in test [5]; 25 µM in test [6]. In test [7], this molecule registered a TGI of 29.2 µM.
Consider `N#Cc1c(N/N=C/c2c(Cl)cccc2Cl)nc(N)nc1N1CCOCC1`, for which the GI50 in test [1] is 3.91 µM; in test [2] it was 20.2 µM; in test [3] it was 35.5 µM; in test [4] it was 16 µM; in test [5] it was 82.1 µM; in test [6] it was 8.3 µM. For the same molecule, in test [7], the GI50 was 44.5 µM. The TGI in test [1] was 95.8 µM; in test [2] it was over 100 µM; in test [3], over 100 µM; in test [4], over 100 µM; in test [5], over 100 µM; in test [6] it was 81.8 µM. Besides, the TGI in test [7] is over 100 µM.
As to `COc1cccc(C=Nc2cc(C)ccn2)c1O.COc1cccc(C=Nc2cc(C)ccn2)c1O.[Cu]`, the GI50 in test [1] was 17.8 µM; in test [2], 13.6 µM; in test [3], 18.8 µM; in test [4], 19.3 µM; in test [5] it was 21.7 µM; in test [6], 21.1 µM. For the same molecule, the GI50 in test [7] was 19 µM. The TGI in test [1] worked out at 42.9 µM; in test [2], 28.1 µM; in test [3] it was 44.9 µM; in test [4], 41.6 µM; in test [5], 48 µM; in test [6] it was 53.2 µM. The molecule also displayed a TGI in test [7] of 49.4 µM.
Consider `CN(C)CCCN1c2ccccc2CCc2ccc(Cl)cc21`, for which the GI50 is 2.98 µM in test [1]; 4.49 µM in test [2]; 1.7 µM in test [3]; 10.8 µM in test [4]; 1.61 µM in test [5]; 3.01 µM in test [6]. For the same molecule, in test [7], the GI50 was 7.51 µM. Further, the TGI in test [1] came out at 15.4 µM; in test [2], 15.4 µM; in test [3] it was 8.77 µM; in test [4], 23.1 µM; in test [5], 3.07 µM; in test [6], 7.51 µM. The molecule further yielded a TGI in test [7] of 21.9 µM.
As for `COc1cc2nc(N3CCCC3)nc(NCC3CCCCC3)c2cc1OC`, the GI50 was 1.13 µM in test [1]; 1.75 µM in test [2]; 1.47 µM in test [3]; 1.51 µM in test [4]; 1.55 µM in test [5]; 1.86 µM in test [6]. Further, the GI50 in test [7] is 1.57 µM. In addition, the TGI in test [1] was 2.83 µM; in test [2], 3.24 µM; in test [3] it was 2.81 µM; in test [4] it was 2.92 µM; in test [5], 2.91 µM; in test [6] it was 3.51 µM. This molecule also displayed a TGI in test [7] of 3.07 µM.
Regarding `Cc1ccc(NC(=O)/C=C/c2ccccc2)c(C(N)=O)c1`, the GI50 in test [1] was 4.07 µM; in test [2], 3.26 µM; in test [3], 2.62 µM; in test [4], 3.81 µM; in test [5] it was 3.65 µM; in test [6], 4.75 µM. In addition, the GI50 in test [7] is 4.46 µM. In addition, the TGI in test [1] was over 100 µM; in test [2], 19.1 µM; in test [3], 15.1 µM; in test [4], over 41.9 µM; in test [5], over 100 µM; in test [6], 31.6 µM. In test [7], this molecule had a TGI of over 100 µM.
As for `COc1ccc(-c2cc(-c3ccccc3)nc(SCCCC(=O)NO)n2)cc1`, the GI50 was 1.61 µM in test [1]; 1.74 µM in test [2]; 0.964 µM in test [3]; 1.06 µM in test [4]; 1.25 µM in test [5]; 2.3 µM in test [6]. Also, the GI50 in test [7] was 1.51 µM. Also, the TGI was found to be 8.39 µM in test [1]; 5.54 µM in test [2]; 4.95 µM in test [3]; 9.58 µM in test [4]; 3.12 µM in test [5]; 9.26 µM in test [6]. Besides, the TGI in test [7] came out at 4.75 µM.

The values above are taken from PubChem BioAssay (NCI).
